Laboratory results as given in paper PMC11393731, “Sidechain structure–activity relationships of cyclobutane-based small molecule αvβ3 antagonists” (RSC Medicinal Chemistry, 2024).
Entries after “also recorded” stand apart in the source; their conditions may differ. Read-outs that look alike come from different tables or passages of the source.

Key:
αvβ3 = target: T1, αvβ3 (Homo sapiens, UniProt P05106+P06756); experiment: αvβ3-mediated SK-Mel-2 melanoma cell adhesion to fibronectin; type: cell-based; conditions: for inhibition at 5 µM: read-out: Adhesion % inhibition @5 μM
T1 construct: αvβ3-expressing U87-MG glioblastoma and SK-Mel-2 melanoma cells; host or cells: SK-Mel-2 human melanoma cells
Description: (§1) Cancer cell lines were obtained from ATCC (SK-Mel-2) or ECACC (U87-MG) and cultured in RPMI-1640 culture medium containing 10% foetal bovine serum (FBS), sodium pyruvate (1 mM) and L-glutamine (2 mM). All are human in origin. The αvβ3 adhesion assay was performed as previously described.[22,43]

[1] = system: U87-MG glioblastoma cells; experiment: U87-MG 3-D spheroid invasion assay; type: cell-based; conditions: Homo sapiens, U-87 MG, mean ± SD
Description: Selected compounds were further investigated for effects on αvβ3-mediated cell invasion to model a key step in tumour progression and metastasis. U87-MG glioblastoma cells; a well-known αvβ3-expressing cell line model,[35,36] were used in a 3-D spheroid invasion model.[37]
as §1
Spheroids were formed from U87-MG cells (1000 cells per 30 μl hanging drop) according to the method of Nowicki and then embedded in collagen as follows.[37] Collagen I (1400 μL of 3 mg mL^−1) was added to a 1 mL Eppendorf tube on ice, supplemented with 0.2 mL of complete RPMI, and adjusted to pH 7.4 with 1 N NaOH. The collagen mixture was pipetted into each chamber of an 8-chamber cover glass and incubated at 37 °C for 45 minutes. Spheroids from hanging drops were transferred to each chamber of the cover glass, the medium allowed to evaporate, and then a 200 μL layer of collagen gel matrix was added to each chamber and incubated at 37 °C for 45 minutes. 200 μL of RPMI containing test compounds was added to each chamber and incubated at 37 °C, 5% CO2 for 7 days. The spheroids were observed frequently using inverted light microscopy at 10× objective lens, and images were captured and analysed using ImageJ.

[2] = Metabolic stability in mouse liver homogenates; type: in vitro ADME; conditions: for half-life at 10 μM: liver homogenate (1:3), 37 °C, read-out: half-life of methyl ester cleavage to free acid
Description: The methyl esters in 1 and 54 were cleaved to the corresponding free acids with half-lives of 5.4 minutes and 3.6 minutes respectively (ESI ^†). This was expected as small esters are frequently used to mask carboxylic acids with rapid ester hydrolysis releasing the active carboxylic acid in biological systems.
Compound metabolism in liver (ex vivo) was studied using (1 : 3) tissue homogenates of mouse liver. Mouse livers, supplied by the Institute of Cancer Therapeutics (ICT), under Home Office license guidelines (see below) were homogenized in phosphate-buffered saline. Liver homogenates were spiked with compound of interest (10 μM final concentration) and incubated at 37 °C. Reaction aliquots were removed over a 120 minute period, proteins precipitated using acetonitrile (1 : 3), and compound and metabolites analyzed by liquid chromatography-mass spectrometry (LC–MS) at the appropriate SIR (single ion recording) channel.
Detection was performed on a Waters Alliance system using a photodiode array detector, and a Waters Micromass ZQ quadrupole electrospray mass spectrometer connected in series. Compound and metabolites were separated on a RPB reversed-phase high-performance liquid chromatography column (HiChrom) using a mobile phase of acetonitrile/water/0.1% formic acid, with a gradient from 20% to 70% acetonitrile over 30 minutes at 1.1 mL min^−1.
Any metabolic intermediates were detected as singularly charged ions and identified by mass spectrometry.

in vitro [3] = type: cell-based; conditions: human
Text: (§2) Compounds were screened for non-specific cytotoxicity using the MTT assay before use in anti-αvβ3 functional assays. Unlike normal cells, cancer cell survival is often independent of αvβ3, and checking for cytotoxicity ensures inhibition of adhesion and invasion are truly from αvβ3 inhibition rather than cell death. […] In general, aminopyridines 53 and 54 were more cytotoxic than most THN-containing mimetics.
as §1
(§3) Table S1 Cytotoxicity of compounds on the cell lines used in the functional assays (measured by MTT assay). Cells (2000 cells/well for Sk-Mel-2; 1000 cells/well for U87MG) were incubated for 96 hours at 37 °C in a total volume of 200 µL/well (180 μL medium + 20 μL test compound solution). After 96 hours, the medium was replaced by fresh medium containing 0.5 mg/ml (end conc.) MTT per well, incubated for 4 h then the plate processed and read as described in Sutherland et al. 1 […]
(§4) 1. M. Sutherland, A. Gordon, F. O. Al-Shammari, A. Throup, A. Cilia La Corte, H. Philippou, S. D.
(§5) Shnyder, L. H. Patterson and H. M. Sheldrake, Cancers, 2023, 15, 4023.
(§6) (also on this page, place not known: al.1 Supplementary Information (SI) for RSC Medicinal Chemistry. This journal is © The Royal Society of Chemistry 2024)
(§7) (1 picture or pasted object on this page, not shown here)

in vitro [4] = type: cell-based; conditions: human; remark: listed apart in the source
Text: as §2, §1, §3, §4, §5, §6, §7

C57BL/6 mice = experiment: In vivo dose tolerability in C57BL/6 mice; set-up: species or system mouse; conditions: intraperitoneal, 4 consecutive days, female C57BL/6 mice
Description: Given compound 54's effectiveness at functional inhibition of αvβ3, its rapid conversion to a stable carboxylic acid, and our preference for developing an aminopyridine-based RGD mimetic over a THN-based one, 54 was therefore selected for in vivo dose tolerability studies in an immunocompetent C57BL/6 mouse model (Fig. 2).
Compound 54 was administered intraperitoneally three dose levels, up to its maximum soluble dose of 300 mg kg^−1 per day, for 4 consecutive days to female C57BL/6 immunocompetent mice, and mice were observed daily, and bodyweight measured frequently. […] Mo = mouse; Cont = solvent control.
Female adult C57BL/6 mice were used (Envigo, Blackthorn, UK). Mice all came from the same delivery and were randomly assigned to cages. They were kept in cages housed in isolation cabinets in an air-conditioned room with regular alternating cycles of light and darkness. They received Teklad 2018 diet (Envigo, Blackthorn, UK) and water ad libitum.
For evaluation of the safety of compound 54in vivo, the compound was dissolved in 15% DMSO/arachis oil, and then administered intraperitoneally as a single dose on four consecutive days, with the first day designated day 0, with 2 mice being treated at each dose level. The control was solvent administered intraperitoneally on the same schedule. […] Mice were observed daily for signs of deleterious effects, and bodyweight measured frequently.

[5] = SK-Mel-2 adhesion to fibronectin, mean ± SD
[6] = read-out: Adhesion % inhibition @50 μM, SK-Mel-2 adhesion to fibronectin, mean ± SD
[7] = SK-MEL-2, read-out: Adhesion % inhibition @50 μM (initial trial experiment), initial trial experiment, not tested further at this concentration

T1 sequence (P06756 31-889 limits assumed): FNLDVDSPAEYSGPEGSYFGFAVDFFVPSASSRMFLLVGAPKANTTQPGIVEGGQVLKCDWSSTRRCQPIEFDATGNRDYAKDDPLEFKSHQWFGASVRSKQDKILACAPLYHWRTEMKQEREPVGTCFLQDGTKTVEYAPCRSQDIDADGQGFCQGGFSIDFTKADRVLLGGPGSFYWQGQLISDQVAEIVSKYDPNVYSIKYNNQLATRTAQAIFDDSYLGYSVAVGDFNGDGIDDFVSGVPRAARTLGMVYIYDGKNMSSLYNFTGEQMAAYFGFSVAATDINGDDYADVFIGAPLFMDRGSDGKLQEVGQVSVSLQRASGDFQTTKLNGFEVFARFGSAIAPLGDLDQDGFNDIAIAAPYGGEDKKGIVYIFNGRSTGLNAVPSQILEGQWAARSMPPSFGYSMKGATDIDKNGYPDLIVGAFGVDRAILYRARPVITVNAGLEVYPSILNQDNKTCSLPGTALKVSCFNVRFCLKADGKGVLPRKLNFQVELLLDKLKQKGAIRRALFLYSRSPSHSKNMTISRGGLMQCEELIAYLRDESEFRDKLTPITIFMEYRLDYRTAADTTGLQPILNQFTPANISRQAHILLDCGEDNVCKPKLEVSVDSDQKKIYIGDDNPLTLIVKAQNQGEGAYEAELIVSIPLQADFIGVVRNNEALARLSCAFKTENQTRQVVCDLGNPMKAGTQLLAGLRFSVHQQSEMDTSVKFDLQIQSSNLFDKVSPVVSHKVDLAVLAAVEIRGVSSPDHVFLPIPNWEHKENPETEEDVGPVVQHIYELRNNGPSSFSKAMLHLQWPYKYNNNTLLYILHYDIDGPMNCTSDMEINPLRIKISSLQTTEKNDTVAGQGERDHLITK
T1 sequence (P06756 891-1048 partner limits assumed): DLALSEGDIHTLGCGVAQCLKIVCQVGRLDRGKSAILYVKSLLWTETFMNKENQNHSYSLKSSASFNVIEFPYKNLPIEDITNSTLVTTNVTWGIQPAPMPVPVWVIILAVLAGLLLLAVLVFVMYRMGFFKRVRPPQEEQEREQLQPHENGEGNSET
T1 sequence (P05106 27-788): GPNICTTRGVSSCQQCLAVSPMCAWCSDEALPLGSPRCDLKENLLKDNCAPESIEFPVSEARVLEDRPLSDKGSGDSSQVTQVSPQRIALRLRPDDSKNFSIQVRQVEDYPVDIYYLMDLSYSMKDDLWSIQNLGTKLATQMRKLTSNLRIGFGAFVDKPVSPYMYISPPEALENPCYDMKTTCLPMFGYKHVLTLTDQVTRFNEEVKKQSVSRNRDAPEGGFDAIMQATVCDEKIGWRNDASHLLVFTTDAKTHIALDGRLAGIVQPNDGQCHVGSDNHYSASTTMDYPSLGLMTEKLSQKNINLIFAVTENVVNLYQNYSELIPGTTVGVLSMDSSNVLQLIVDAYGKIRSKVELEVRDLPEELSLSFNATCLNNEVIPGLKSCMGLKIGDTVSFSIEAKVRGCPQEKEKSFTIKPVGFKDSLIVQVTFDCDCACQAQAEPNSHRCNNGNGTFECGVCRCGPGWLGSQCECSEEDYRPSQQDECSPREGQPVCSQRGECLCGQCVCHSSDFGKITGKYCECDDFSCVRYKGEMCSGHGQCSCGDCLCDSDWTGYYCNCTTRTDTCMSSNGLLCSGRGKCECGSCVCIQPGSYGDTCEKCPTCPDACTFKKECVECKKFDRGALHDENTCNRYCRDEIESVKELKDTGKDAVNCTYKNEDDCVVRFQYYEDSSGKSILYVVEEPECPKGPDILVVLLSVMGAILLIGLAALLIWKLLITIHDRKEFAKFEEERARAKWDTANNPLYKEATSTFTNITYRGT

SMILES	IC50 (αvβ3; [5]) [µM]	inhibition at 5 µM (αvβ3; [5]) [%]	inhibition at 50 µM (αvβ3; [7]) [%]	IC50 at 96 h (in vitro [4]) [µM]	inhibition at 10 µM [1] [%]	other results
COC(=O)[C@H](CNC(=O)[C@H]1C[C@@H](CCc2ccc3c(n2)NCCC3)C1)NS(=O)(=O)c1c(C)cc(C)cc1C [Compound 1]	0.34 ± 0.33	98.4 ± 1.9			60.2 ± 0.2	half-life at 10 μM [2]: 5.4 min
COC(=O)[C@H](CCNC(=O)[C@H]1C[C@@H](Cc2ccc3cccnc3n2)C1)NS(=O)(=O)c1ccccc1 [Compound 17]					23.3 ± 6.2	inhibition at 50 µM (αvβ3; [6]): 13 ± 25%
COC(=O)[C@H](CCNC(=O)[C@H]1C[C@@H](Cc2ccc3cccnc3n2)C1)NS(=O)(=O)c1c(C)cc(C)cc1C [Compound 18]					17.4 ± 3.7	IC50 at 96 h (in vitro [3]): 59.2 ± 16.9 µM
COC(=O)[C@H](CCNC(=O)[C@H]1C[C@@H](CCc2ccc3cccnc3n2)C1)NS(=O)(=O)c1ccccc1 [Compound 19]		54 ± 15	> 75	> 50		
COC(=O)[C@H](CCNC(=O)[C@H]1C[C@@H](CCc2ccc3cccnc3n2)C1)NS(=O)(=O)c1c(C)cc(C)cc1C [Compound 20]	11.5 ± 5.3	43 ± 6	> 75		55.7 ± 1.2	
COC(=O)[C@H](CCNC(=O)[C@H]1C[C@@H](Cc2ccc3c(n2)NCCC3)C1)NS(=O)(=O)c1ccccc1 [Compound 21]	29.4 ± 2.1	4 ± 9	> 75		49.5 ± 8.8	
COC(=O)[C@H](CCNC(=O)[C@H]1C[C@@H](Cc2ccc3c(n2)NCCC3)C1)NS(=O)(=O)c1c(C)cc(C)cc1C [Compound 22]		83 ± 19	> 75	> 50	22.9 ± 5.7	IC50 at 96 h (in vitro [3]): 46.4 ± 3.5 µM
COC(=O)[C@H](CCNC(=O)[C@H]1C[C@@H](CCc2ccc3c(n2)NCCC3)C1)NS(=O)(=O)c1ccccc1 [Compound 23]		57 ± 13	> 75	> 50		
COC(=O)[C@H](CCNC(=O)[C@H]1C[C@@H](CCc2ccc3c(n2)NCCC3)C1)NS(=O)(=O)c1c(C)cc(C)cc1C [Compound 24]		74 ± 10	> 75		35 ± 9	
COC(=O)[C@H](CC(=O)N[C@H]1C[C@@H](CCc2ccc3cccnc3n2)C1)NS(=O)(=O)c1ccccc1 [Compound 28]					28.5 ± 4.4	inhibition at 50 µM (αvβ3; [6]): 42.4 ± 16.3%
COC(=O)[C@H](CC(=O)N[C@H]1C[C@@H](CCc2ccc3cccnc3n2)C1)NS(=O)(=O)c1c(C)cc(C)cc1C [Compound 29]					70.4 ± 1.4	inhibition at 50 µM (αvβ3; [6]): 56.6 ± 15.3%
CNc1cccc(CC[C@H]2C[C@@H](C(=O)NC[C@H](NS(=O)(=O)c3c(C)cc(C)cc3C)C(=O)OC)C2)n1 [Compound 54]	0.6 ± 0.7	84.9 ± 11.2			48.6 ± 1	half-life at 10 μM [2]: 3.6 min; toxicity / deleterious effects (C57BL/6 mice; three dose levels up to 300 mg kg^−1 per day): No deleterious effects were observed; also recorded: non-toxic; bodyweight (C57BL/6 mice; up to 300 mg kg^−1 per day): remained within normal levels
CNc1cccc(CC[C@H]2C[C@@H](C(=O)NC[C@H](NS(=O)(=O)c3c(C)cc(C)cc3C)C(=O)O)C2)n1 [Compound 55]						stability of metabolite in liver ([2]; mouse liver homogenate): appears to be stable
CC(C)[C@@H]1NC(=O)[C@@H](Cc2ccccc2)NC(=O)[C@H](CC(=O)O)NC(=O)CNC(=O)[C@H](CCCN=C(N)N)NC1=O [cRGDfV, reference compound]						IC50 at 96 h (in vitro [3]): 69.2 ± 25.5 µM

Now from value to molecule, other results behind:

IC50 (αvβ3; [5]) [µM]	inhibition at 5 µM (αvβ3; [5]) [%]	inhibition at 50 µM (αvβ3; [7]) [%]	IC50 at 96 h (in vitro [4]) [µM]	SMILES	inhibition at 10 µM [1] [%]	other results
	39.9 ± 23.8			O=C1C[C@H](NS(=O)(=O)c2ccccc2)C(=O)N1[C@H]1C[C@@H](CCc2ccc3cccnc3n2)C1 [Compound 30]	22.6 ± 4	
49.5 ± 29.8	13.8 ± 9.7		> 100	Cc1cc(C)c(S(=O)(=O)N[C@H]2CC(=O)N([C@H]3C[C@@H](CCc4ccc5cccnc5n4)C3)C2=O)c(C)c1 [Compound 31]		inhibition at 50 µM (αvβ3; [6]): 60.9 ± 23.8%
	45.4 ± 13.7			COC(=O)[C@H](CC(=O)N[C@H]1C[C@@H](CCc2ccc3c(n2)NCCC3)C1)NS(=O)(=O)c1ccccc1 [Compound 32]	41.6 ± 4.7	
1.2 ± 0.9	89.5 ± 8.7			COC(=O)[C@H](CC(=O)N[C@H]1C[C@@H](CCc2ccc3c(n2)NCCC3)C1)NS(=O)(=O)c1c(C)cc(C)cc1C [Compound 33]	33.7 ± 7.4	
3.28 ± 0.01	60.2 ± 14.8			O=C1C[C@H](NS(=O)(=O)c2ccccc2)C(=O)N1[C@H]1C[C@@H](CCc2ccc3c(n2)NCCC3)C1 [Compound 34]	69.9 ± 1.8	inhibition at 50 µM (αvβ3; [6]): 73.9 ± 24.6%
1.8 ± 1			15.2 ± 5.5	Cc1cc(C)c(S(=O)(=O)N[C@H]2CC(=O)N([C@H]3C[C@@H](CCc4ccc5c(n4)NCCC5)C3)C2=O)c(C)c1 [Compound 35]		inhibition at 0.5 µM (αvβ3; 0.5 μM, SK-Mel-2 adhesion to fibronectin): 45.6%
13.6 ± 8.3	50 ± 17	> 75	> 50	CC(C)(C)OC(=O)C[C@H](NS(=O)(=O)c1ccccc1)C(=O)N[C@H]1C[C@@H](CCc2ccc3cccnc3n2)C1 [Compound 37]		
			> 50	O=C(O)C[C@H](NS(=O)(=O)c1ccccc1)C(=O)N[C@H]1C[C@@H](CCc2ccc3cccnc3n2)C1 [Compound 38]		inhibition at 50 µM (αvβ3; [6]): 43 ± 31%
	71 ± 16	> 75	35.2 ± 6.5	CC(C)(C)OC(=O)C[C@H](NS(=O)(=O)c1ccccc1)C(=O)N[C@H]1C[C@@H](CCc2ccc3c(n2)NCCC3)C1 [Compound 39]		
	67 ± 16	> 75	> 50	O=C(O)C[C@H](NS(=O)(=O)c1ccccc1)C(=O)N[C@H]1C[C@@H](CCc2ccc3c(n2)NCCC3)C1 [Compound 40]		
1.8 ± 0.4	85 ± 1.4			CNc1cccc(CC[C@H]2C[C@@H](C(=O)NC[C@H](NS(=O)(=O)c3ccccc3)C(=O)OC)C2)n1 [Compound 53]	62.9 ± 1.5	
